The values below come from paper PMC4296974 (Bioorganic & medicinal chemistry letters, 2014).

The structures appear in SMILES notation. Where only a bound is given, the exact number is not on record here.

Test [1] addresses T1, rNTS2 (Rattus norvegicus, UniProt Q63384).
T1 sequence (Q63384 1-416): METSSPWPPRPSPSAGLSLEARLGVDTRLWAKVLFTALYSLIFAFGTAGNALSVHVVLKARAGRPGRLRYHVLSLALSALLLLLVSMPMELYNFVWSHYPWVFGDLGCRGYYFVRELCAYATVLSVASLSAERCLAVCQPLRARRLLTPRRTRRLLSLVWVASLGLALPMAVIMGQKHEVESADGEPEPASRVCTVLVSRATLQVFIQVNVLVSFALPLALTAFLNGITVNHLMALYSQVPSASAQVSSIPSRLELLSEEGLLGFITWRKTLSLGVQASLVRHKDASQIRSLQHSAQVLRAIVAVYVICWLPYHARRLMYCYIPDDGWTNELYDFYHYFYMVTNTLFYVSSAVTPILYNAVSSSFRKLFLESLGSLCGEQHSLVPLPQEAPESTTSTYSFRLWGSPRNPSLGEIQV
Kind of test: FLIPR calcium mobilization assay in CHO cell line stably expressing rNTS2. In kind it is cell-based.

For the next test, the target named is rNTS1 (Rattus norvegicus, UniProt P20789). Particulars: read-out: Binding Assay NTS1 Ki; [125I]NT, bound; cited from earlier work.
Test [2] has as its target T1, rNTS2. Particulars: Emax value is % of 4; cited from earlier work.
Test [3] addresses T1, rNTS2. Kind of test: [125I]NT competition binding assay at NTS2. Particulars: relative to 9.
The target of another test is NTS1 (Rattus norvegicus, UniProt P20789). As to the kind of experiment: FLIPR calcium mobilization assay at NTS1. In kind it is cell-based. Particulars: 17: agonist and antagonist screen at 10 μM; 9, 14b, 16b: data not shown. (In general: Calcium flux is commonly read through the fluorescence of an indicator in the cells.)

As usually defined, the Emax is the maximal effect, on the per cent scale that the assay sets. As usually defined, the Ki is a measure of affinity in units of concentration, obtained from inhibition or displacement. Broadly, the inhibition is the drop in the measured response relative to a control, in per cent.

NTS1, sequence (P20789 whole entry): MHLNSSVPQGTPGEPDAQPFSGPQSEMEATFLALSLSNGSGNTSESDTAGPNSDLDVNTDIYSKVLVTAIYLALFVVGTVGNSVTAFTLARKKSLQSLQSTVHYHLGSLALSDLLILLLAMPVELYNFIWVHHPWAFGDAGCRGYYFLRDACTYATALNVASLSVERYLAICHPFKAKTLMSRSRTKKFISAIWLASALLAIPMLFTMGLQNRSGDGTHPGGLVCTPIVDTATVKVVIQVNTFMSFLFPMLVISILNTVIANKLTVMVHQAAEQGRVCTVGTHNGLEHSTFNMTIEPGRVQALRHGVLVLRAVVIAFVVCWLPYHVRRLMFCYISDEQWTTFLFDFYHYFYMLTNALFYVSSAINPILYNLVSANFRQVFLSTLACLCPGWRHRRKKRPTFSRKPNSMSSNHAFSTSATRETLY
rNTS1, sequence (P20789 whole entry): as above

As to `COc1cccc(OC)c1-c1cc(C(=O)NC2(C(=O)O)C3CC4CC(C3)CC2C4)nn1-c1ccc(C(=O)N(C)CCCN(C)C)cc1C(C)C` (centres unmarked) [Compound 4, reference compound], the Emax at rNTS2 [1] (CHO, read-out: FLIPR Assay NTS2 Emax) amounted to 100 ± 5%.

`C[C@@H]1CN([C@H]2CC[C@](C#N)(c3ccc(F)cc3)CC2)CC[C@]1(C(=O)O)c1ccccc1` [Compound 5, levocabastine]: the inhibition constant Ki at rNTS1 was greater than 25 µM. Moreover, on rNTS2 [2], the “FLIPR Assay NTS2 Emax” value is listed as 16±3%.

As to `COc1cccc(OC)c1-c1nc(C(=O)N[C@H](C(=O)O)C2CCCCC2)nc2ccc(Cl)cc12` [Compound 14b], on rNTS2 [1] (IC50 comparison with NT), the “Fold less active than NT in the NTS2 functional assay” value is on record as 25 fold. The “Fold weaker than 9 in NTS2 binding (Ki)” value on rNTS2 [3] was 5 fold. Besides, at NTS1, the “Activity in the calcium mobilization assay at NTS1” value is “failed to show activity”.

In the case of `COc1cccc(OC)c1-c1nc(C(=O)NC2(C(=O)O)CCCCC2)nc2ccc(Cl)cc12` [Compound 16b], the “Fold lower activity than 9 in NTS2 FLIPR assay (EC50)” value on rNTS2 [1] (relative to 9) is reported as “roughly 10 fold”. Also, the “Fold weaker than 9 in NTS2 binding (Ki)” value on rNTS2 [3] is given as 11 fold. Moreover, the “Activity in the calcium mobilization assay at NTS1” value at NTS1 is “failed to show activity”.

For the molecule `O=C(O)c1cc(Nc2nc(-c3ccccc3)c3cc(Cl)ccc3n2)ccc1O` [Compound 17], the “Activity in the calcium mobilization assay at NTS1” value at NTS1 is recorded as “devoid of activity”.

With `COc1cccc(OC)c1-c1cc(C(=O)N[C@@H](CC(C)C)C(=O)O)nn1-c1ccc(F)cc1` [Compound 21, reference compound], on rNTS2 [1] (CHO, read-out: % inhibition of calcium release mediated by 4 at NTS2), the inhibition at 10 µM was less than 30%.
